# Assay results reported in publication PMC9222498 (Bioactive Materials, 2022).
# Experiments:
# [1] = system: orthotopic 4T1 breast cancer model; experiment: In vivo antitumor activity, orthotopic 4T1 breast cancer model; design: species or system BALB/c mice; details: 10 mg/kg SN38 equiv., i.v., days 0, 3, 6
# Carboxylesterase = details: after intravenous administration; ref [51]; cited from earlier work
# [2] = system: 4T1 spontaneous metastasis model; experiment: In vivo antimetastatic activity, 4T1 spontaneous metastasis model; design: species or system mice; details: Day 24
compound,measurement,setting,value
"CCc1c2c(nc3ccc(OC(=O)N4CCC(N5CCCCC5)CC4)cc13)-c1cc3c(c(=O)n1C2)COC(=O)[C@]3(O)CC [CPT-11, irinotecan]",primary tumor growth,[1],similarly rapid tumor growth compared with the saline-treated group
same,enzymatic conversion rate to SN38,Carboxylesterase,< 8%
same,metastasizing tumor cells in liver and lung (H&E),[2],clearly detected metastasizing tumor cells in liver and lung
same,metastatic burden in lymph nodes (H&E),[2]; ipsilateral inguinal lymph node,did not significantly reduce the metastatic burden
